Source: PubChem BioAssay AID256 (DTP/NCI, 2004)
Where “and” joins values, the source holds several entries; their conditions need not be identical. Identical values can stand only once. Toxic doses and inconclusive results are not listed.

Tested on: CD2F1 mice, L1210 leukemia ip, survival T/C
Experiment: NCI In Vivo Anticancer Drug Screen. Data for tumor model L1210 Leukemia (intraperitoneal) in CD2F1 (CDF1) mice
Conditions: higher = longer survival
How it was run: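 Read-out first: treated-group measurement over vehicle-control measurement, expressed as a ratio. Animals bore a transplanted tumor line and were dosed with compound or vehicle.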

[1] = endpoint: mean survival time, dose: 50.0 mg/kg/injection, schedule: Q04DX002 (ip), vehicle: saline with Tween-80
[2] = endpoint: mean survival time, dose: 100.0 mg/kg/injection, schedule: Q04DX002 (ip), vehicle: saline with Tween-80
[3] = endpoint: mean survival time, dose: 100.0 mg/kg/injection, schedule: Q04DX003 (ip), vehicle: saline with Tween-80
[4] = endpoint: mean survival time, dose: 200.0 mg/kg/injection, schedule: Q04DX003 (ip), vehicle: saline with Tween-80
[5] = endpoint: mean survival time, dose: 400.0 mg/kg/injection, schedule: Q04DX003 (ip), vehicle: saline with Tween-80
[6] = endpoint: mean survival time, dose: 200.0 mg/kg/injection, schedule: Q04DX002 (ip), vehicle: saline with Tween-80
[7] = endpoint: mean survival time, dose: 400.0 mg/kg/injection, schedule: Q04DX002 (ip), vehicle: saline with Tween-80
[8] = endpoint: mean survival time, dose: 100.0 mg/kg/injection, schedule: Q01DX009 (ip), vehicle: saline with Tween-80
[9] = endpoint: mean survival time, dose: 200.0 mg/kg/injection, schedule: Q01DX009 (ip), vehicle: saline with Tween-80
[10] = endpoint: mean survival time, dose: 75.0 mg/kg/injection, schedule: Q01DX001 (ip), vehicle: saline

Question: Which results are given for `CC1=NN(c2cccc(S(=O)(=O)O)c2)C(=O)C1N=Nc1cc(Cl)cc(S(=O)(=O)O)c1O.CC1=NN(c2cccc(S(=O)(=O)O)c2)C(=O)C1N=Nc1cc(Cl)cc(S(=O)(=O)O)c1O.[Cr]` (stereo not given)?
Answer: T/C (endpoint: median survival time, dose: 25.0 mg/kg/injection, schedule: Q01DX009 (ip), vehicle: saline): 113 % of control; T/C (endpoint: median survival time, dose: 50.0 mg/kg/injection, schedule: Q01DX009 (ip), vehicle: saline): 107 % of control; T/C (endpoint: median survival time, dose: 100.0 mg/kg/injection, schedule: Q01DX009 (ip), vehicle: saline): 101 % of control; T/C (endpoint: median survival time, dose: 200.0 mg/kg/injection, schedule: Q01DX009 (ip), vehicle: saline): 118 % of control; T/C (endpoint: median survival time, dose: 400.0 mg/kg/injection, schedule: Q01DX009 (ip), vehicle: saline): 120 % of control

Question: Which T/C (endpoint: mean survival time, dose: 9.5 mg/kg/injection, schedule: Q01DX001 (ip), vehicle: other) does the source give for `CC1OC(=O)C2(C(C)C)CC12` (stereo not given) here?
Answer: 103 % of control

Question: What about the T/C (endpoint: mean survival time, dose: 19.0 mg/kg/injection, schedule: Q01DX001 (ip), vehicle: other) of the same compound?
Answer: 106 % of control

Question: For `O/N=C(\c1ccccc1)C1C(/C(=N/O)c2ccccc2)C1c1ccccc1` (stereo not given), which T/C [1] is on record?
Answer: 90 % of control

Question: And the T/C [2]?
Answer: 87 % of control

Question: Which results are given for `COc1ccc([N+](=O)[O-])cc1Br`?
Answer: T/C [3]: 100 % of control; T/C [4]: 102 % of control; T/C [5]: 102 % of control

Question: Which results are given for `COc1ccccc1NC(=O)Nc1cc([N+](=O)[O-])ccc1OC`?
Answer: T/C [2]: 96 % of control; T/C [6]: 93 % of control; T/C [7]: 86 % of control

Question: With `O=C(OCC(O)C(O)C(O)C(O)COC(=O)c1ccccc1)c1ccccc1` (stereo not given) (tested in a mixture with another compound) as the compound, how does the T/C (endpoint: mean survival time, dose: 50.0 mg/kg/injection, schedule: Q01DX009 (ip), vehicle: saline with Tween-80) read?
Answer: 98 % of control

Question: What about the T/C [8] of the same compound?
Answer: 110 % of control

Question: What about the T/C [9] of the same compound?
Answer: 98 % of control

Question: Which T/C (endpoint: mean survival time, dose: 50.0 mg/kg/injection, schedule: Q01DX009 (ip), vehicle: acetone) does the source give for `CCCCCCC(C)OC(=O)CCCc1ccc(N(CCCl)CCCl)cc1` (stereo not given) here?
Answer: 104 % of control

Question: And the T/C (endpoint: mean survival time, dose: 100.0 mg/kg/injection, schedule: Q01DX009 (ip), vehicle: acetone)?
Answer: 104 % of control

Question: What about the T/C (endpoint: mean survival time, dose: 200.0 mg/kg/injection, schedule: Q01DX009 (ip), vehicle: acetone) of the same compound?
Answer: 104 % of control

Question: Which T/C (endpoint: median survival time, dose: 10.0 mg/kg/injection, schedule: Q01DX005 (ip), vehicle: water) does the source give for `COc1cc(NCc2ccc3nc(N)nc(N)c3c2C)cc(OC)c1OC` (tested in a mixture with another compound) here?
Answer: 115 % of control

Question: Which T/C [2] does the source give for `CN(C)c1nc(-c2ccncc2)nc(N2CCOCC2)n1` here?
Answer: 92 % of control

Question: How did the T/C [10] turn out when `CN=NNc1ccccc1` was run?
Answer: 117 % of control

Question: And the T/C (endpoint: mean survival time, dose: 75.0 mg/kg/injection, schedule: Q04DX003 (ip), vehicle: saline with Tween-80)?
Answer: 122 % of control

Question: What about the T/C [3] of the same compound?
Answer: 119 % of control

Question: What about the T/C (endpoint: mean survival time, dose: 150.0 mg/kg/injection, schedule: Q04DX003 (ip), vehicle: saline with Tween-80) of the same compound?
Answer: 153 % of control

Question: What about the T/C (endpoint: mean survival time, dose: 225.0 mg/kg/injection, schedule: Q04DX003 (ip), vehicle: saline with Tween-80) of the same compound?
Answer: 86 % of control

Question: With `CCOC(=O)c1ccc(NC(=O)N2CCC(CCCc3ccccc3)CC2)cc1` as the compound, how does the T/C (endpoint: mean survival time, dose: 50.0 mg/kg/injection, schedule: Q01DX001 (ip), vehicle: saline with Tween-80) read?
Answer: 100 % of control

Question: And the T/C (endpoint: mean survival time, dose: 100.0 mg/kg/injection, schedule: Q01DX001 (ip), vehicle: saline with Tween-80)?
Answer: 88 % of control and 98 % of control

Question: What about the T/C [8] of the same compound?
Answer: 87 % of control and 91 % of control

Question: And the T/C [2]?
Answer: 91 % of control and 95 % of control

Question: What about the T/C [3] of the same compound?
Answer: 98 % of control

Question: And the T/C [9]?
Answer: 87 % of control and 93 % of control

Question: And the T/C [6]?
Answer: 91 % of control

Question: What about the T/C [4] of the same compound?
Answer: 87 % of control

Question: And the T/C (endpoint: mean survival time, dose: 400.0 mg/kg/injection, schedule: Q01DX001 (ip), vehicle: saline with Tween-80)?
Answer: 88 % of control and 94 % of control

Question: And the T/C (endpoint: mean survival time, dose: 400.0 mg/kg/injection, schedule: Q01DX009 (ip), vehicle: saline with Tween-80)?
Answer: 93 % of control

Question: And the T/C [7]?
Answer: 90 % of control

Question: And the T/C [5]?
Answer: 90 % of control

Question: `COc1ccc(N2CSC(=S)N(c3ccc(OC)cc3)C2)cc1` was tested. Which T/C (endpoint: mean survival time, dose: 100.0 mg/kg/injection, schedule: Q04DX003 (ip), vehicle: other) did it give?
Answer: 94 % of control

Question: With `Oc1ccc(SSc2ccc(O)cc2)cc1` as the compound, how does the T/C (endpoint: mean survival time, dose: 100.0 mg/kg/injection, schedule: Q01DX009 (ip), vehicle: other) read?
Answer: 98 % of control

Question: What about the T/C (endpoint: mean survival time, dose: 200.0 mg/kg/injection, schedule: Q01DX009 (ip), vehicle: other) of the same compound?
Answer: 101 % of control

Question: What about the T/C (endpoint: mean survival time, dose: 400.0 mg/kg/injection, schedule: Q01DX009 (ip), vehicle: other) of the same compound?
Answer: 104 % of control

Question: Which T/C [3] does the source give for `N=C(N)[Se]` here?
Answer: 95 % of control

Question: What about the T/C [4] of the same compound?
Answer: 101 % of control

Question: And the T/C [5]?
Answer: 95 % of control

Question: Which results are given for `c1ccc(C[N+]23CCC(CC2)CC3)cc1`?
Answer: T/C (endpoint: mean survival time, dose: 6.25 mg/kg/injection, schedule: Q04DX003 (ip), vehicle: saline): 104 % of control; T/C (endpoint: mean survival time, dose: 12.5 mg/kg/injection, schedule: Q04DX003 (ip), vehicle: saline): 103 % of control

Question: For `O=S(=O)(O)c1ccc(N=Nc2cc(O)cc3ccccc23)cc1`, which T/C (endpoint: mean survival time, dose: 6.25 mg/kg/injection, schedule: Q01DX001 (ip), vehicle: saline) is on record?
Answer: 96 % of control

Question: And the T/C (endpoint: mean survival time, dose: 12.5 mg/kg/injection, schedule: Q01DX001 (ip), vehicle: saline)?
Answer: 92 % of control

Question: And the T/C (endpoint: mean survival time, dose: 25.0 mg/kg/injection, schedule: Q01DX001 (ip), vehicle: saline)?
Answer: 88 % of control

Question: What about the T/C (endpoint: mean survival time, dose: 100.0 mg/kg/injection, schedule: Q01DX001 (ip), vehicle: saline) of the same compound?
Answer: 86 % of control

Question: And the T/C (endpoint: mean survival time, dose: 200.0 mg/kg/injection, schedule: Q01DX001 (ip), vehicle: saline)?
Answer: 88 % of control

Question: What about the T/C (endpoint: mean survival time, dose: 400.0 mg/kg/injection, schedule: Q01DX001 (ip), vehicle: saline) of the same compound?
Answer: 96 % of control

Question: With `OCN(CO)c1ccc2c(c1)Cc1cc(Cl)ccc1-2` as the compound, how does the T/C (endpoint: mean survival time, dose: 100.0 mg/kg/injection, schedule: Q04DX003 (ip), vehicle: saline) read?
Answer: 97 % of control

Question: What about the T/C (endpoint: mean survival time, dose: 200.0 mg/kg/injection, schedule: Q04DX003 (ip), vehicle: saline) of the same compound?
Answer: 100 % of control

Question: What about the T/C (endpoint: mean survival time, dose: 400.0 mg/kg/injection, schedule: Q04DX003 (ip), vehicle: saline) of the same compound?
Answer: 91 % of control

Question: For `CC1=C(N)C(=O)N(C)C1=O`, which T/C (endpoint: mean survival time, dose: 25.0 mg/kg/injection, schedule: Q04DX002 (ip), vehicle: saline with Tween-80) is on record?
Answer: 98 % of control

Question: And the T/C [1]?
Answer: 95 % of control

Question: And the T/C [2]?
Answer: 98 % of control

Question: What about the T/C [6] of the same compound?
Answer: 98 % of control

Question: `N=C(N)N1CCc2ccccc2C1` was tested. Which T/C (endpoint: mean survival time, dose: 18.8 mg/kg/injection, schedule: Q01DX009 (ip), vehicle: saline) did it give?
Answer: 103 % of control

Question: What about the T/C (endpoint: mean survival time, dose: 37.5 mg/kg/injection, schedule: Q01DX009 (ip), vehicle: saline) of the same compound?
Answer: 98 % of control

Question: And the T/C [10]?
Answer: 97 % of control

Question: And the T/C (endpoint: mean survival time, dose: 75.0 mg/kg/injection, schedule: Q01DX009 (ip), vehicle: saline)?
Answer: 103 % of control

Question: With `CCOC(=O)Cc1c(C)[nH]c2c(C)ccc(C)c12` as the compound, how does the T/C (endpoint: mean survival time, dose: 100.0 mg/kg/injection, schedule: Q01DX001 (ip), vehicle: other) read?
Answer: 95 % of control

Question: What does the source list for `COc1cc(OC)c(OC)cc1/C=C\c1ccnc2ccccc12`?
Answer: T/C (endpoint: mean survival time, dose: 12.5 mg/kg/injection, schedule: Q01DX009 (ip), vehicle: Klucel (hydroxypropylcellulose) (HPC)): 96 % of control; T/C (endpoint: mean survival time, dose: 25.0 mg/kg/injection, schedule: Q01DX009 (ip), vehicle: Klucel (hydroxypropylcellulose) (HPC)): 95 % of control; T/C (endpoint: mean survival time, dose: 50.0 mg/kg/injection, schedule: Q01DX009 (ip), vehicle: Klucel (hydroxypropylcellulose) (HPC)): 98 % of control; T/C (endpoint: mean survival time, dose: 100.0 mg/kg/injection, schedule: Q01DX009 (ip), vehicle: Klucel (hydroxypropylcellulose) (HPC)): 102 % of control; T/C (endpoint: mean survival time, dose: 200.0 mg/kg/injection, schedule: Q01DX009 (ip), vehicle: Klucel (hydroxypropylcellulose) (HPC)): 112 % of control; T/C (endpoint: mean survival time, dose: 400.0 mg/kg/injection, schedule: Q01DX009 (ip), vehicle: Klucel (hydroxypropylcellulose) (HPC)): 110 % of control

Question: For `COC(=O)c1ccc(C2CCC(OC(c3ccccc3)c3ccccc3)CC2)cc1` (stereo not given), which T/C [4] is on record?
Answer: 89 % of control

Question: What about the T/C [5] of the same compound?
Answer: 91 % of control
